Key:
AHR = details: mouse hepatoma cells overexpressing ARA9; cited from earlier work
GR-LexA chimera = GR-LexA chimera β-galactosidase reporter dose-response in yeast strain L40; type: cell-based
Protocol: Pharmacology in yeast: AHR dose-response curves were performed in the S. cerevisiae strain L40 as described previously (Carver et al., 1994, supra). Two days after plasmid transformation, the colonies were replica plated on media with various concentrations of βNF spread on the surface. The replica plates were then incubated for two days at 30° C. For each dose of βNF, three colonies were suspended in 100 μl of Z-buffer (60 mM Na2HPO4, 40 mM NaH2PO4, 10 mM KCl, 1 MM MgSO4, 35 mM 2-mercaptoethanol) and cell density was estimated by reading the A600. Twenty microliters of the remaining cell suspension was added to 130 μl Z-buffer, 25 μl 0.1%SDS (w/v), 25 μl CHCl3 and disrupted at high speed for 10 sec. Thirty microliters of a 4 mg/ml ONPG solution was added and the mixture incubated for 2-5 min at 30° C. The reaction was stopped by adding 75 μl of 1M NaCO3, the cell debris removed by centrifugation and the A420 was determined. Beta-galactosidase units were determined using the following formula (A420/(A600 of 1/10 dilution of cells×volume of culture×time of incubation))×1,000. […]
Next, the specificity of ARA3 for the AHR signaling pathway in yeast was examined. […] In this system, GR is expressed as a LexA fusion protein in which the LexA binding domain replaces the GR DNA binding domain.

LexA-AHR chimera = target: T1, LexA-AHR chimera (Mus musculus, UniProt P30561); test: LexA-AHR chimera / LexA-operator β-galactosidase reporter dose-response in yeast strain L40; type: cell-based
T1 construct: expressed in transfected cells; host or cells: Saccharomyces cerevisiae strain L40; the other entry of the earlier key: lexA (P0A7C2, LexA repressor)
T1 sequence (P30561 with tags, fused parts or gaps): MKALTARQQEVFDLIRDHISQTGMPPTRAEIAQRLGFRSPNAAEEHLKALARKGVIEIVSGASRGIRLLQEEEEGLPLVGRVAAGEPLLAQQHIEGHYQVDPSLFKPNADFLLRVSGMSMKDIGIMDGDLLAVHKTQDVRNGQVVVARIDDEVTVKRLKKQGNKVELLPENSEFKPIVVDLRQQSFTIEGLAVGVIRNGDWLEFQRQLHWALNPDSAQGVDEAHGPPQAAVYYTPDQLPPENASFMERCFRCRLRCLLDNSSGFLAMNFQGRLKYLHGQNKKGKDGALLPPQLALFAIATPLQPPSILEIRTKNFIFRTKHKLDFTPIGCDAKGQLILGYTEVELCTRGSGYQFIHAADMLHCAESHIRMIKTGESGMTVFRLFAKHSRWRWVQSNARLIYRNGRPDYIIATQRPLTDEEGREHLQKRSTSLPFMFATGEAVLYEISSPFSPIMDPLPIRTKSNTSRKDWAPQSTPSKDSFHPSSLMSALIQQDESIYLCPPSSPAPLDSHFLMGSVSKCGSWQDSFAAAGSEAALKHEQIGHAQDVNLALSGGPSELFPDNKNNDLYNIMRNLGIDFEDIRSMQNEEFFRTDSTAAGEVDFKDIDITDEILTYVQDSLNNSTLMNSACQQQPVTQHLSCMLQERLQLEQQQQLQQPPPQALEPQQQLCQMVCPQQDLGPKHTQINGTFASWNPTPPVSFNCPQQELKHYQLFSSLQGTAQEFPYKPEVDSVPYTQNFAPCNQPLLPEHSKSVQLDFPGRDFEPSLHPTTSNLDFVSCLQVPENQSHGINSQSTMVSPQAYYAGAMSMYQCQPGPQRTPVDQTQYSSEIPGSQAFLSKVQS
T1 sequence (P15108 whole entry partner): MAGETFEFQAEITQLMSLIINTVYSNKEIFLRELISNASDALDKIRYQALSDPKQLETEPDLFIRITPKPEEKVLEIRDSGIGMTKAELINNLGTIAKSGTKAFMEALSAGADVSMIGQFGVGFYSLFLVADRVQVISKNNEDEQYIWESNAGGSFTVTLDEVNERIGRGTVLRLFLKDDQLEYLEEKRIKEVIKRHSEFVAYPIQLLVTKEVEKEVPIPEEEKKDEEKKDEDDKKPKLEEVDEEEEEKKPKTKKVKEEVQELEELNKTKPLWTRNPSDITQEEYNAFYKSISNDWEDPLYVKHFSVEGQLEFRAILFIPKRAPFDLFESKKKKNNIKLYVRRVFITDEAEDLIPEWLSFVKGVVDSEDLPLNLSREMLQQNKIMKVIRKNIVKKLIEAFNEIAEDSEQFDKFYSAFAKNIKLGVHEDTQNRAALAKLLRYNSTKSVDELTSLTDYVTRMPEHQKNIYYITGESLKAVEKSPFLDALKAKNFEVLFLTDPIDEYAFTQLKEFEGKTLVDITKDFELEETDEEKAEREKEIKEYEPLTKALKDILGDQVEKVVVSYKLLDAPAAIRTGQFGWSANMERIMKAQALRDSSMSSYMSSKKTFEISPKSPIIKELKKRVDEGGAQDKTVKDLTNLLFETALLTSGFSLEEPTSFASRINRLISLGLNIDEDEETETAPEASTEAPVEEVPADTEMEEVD
Protocol: Pharmacology in yeast: AHR dose-response curves were performed in the S. cerevisiae strain L40 as described previously (Carver et al., 1994, supra). Two days after plasmid transformation, the colonies were replica plated on media with various concentrations of βNF spread on the surface. The replica plates were then incubated for two days at 30° C. For each dose of βNF, three colonies were suspended in 100 μl of Z-buffer (60 mM Na2HPO4, 40 mM NaH2PO4, 10 mM KCl, 1 MM MgSO4, 35 mM 2-mercaptoethanol) and cell density was estimated by reading the A600. Twenty microliters of the remaining cell suspension was added to 130 μl Z-buffer, 25 μl 0.1%SDS (w/v), 25 μl CHCl3 and disrupted at high speed for 10 sec. Thirty microliters of a 4 mg/ml ONPG solution was added and the mixture incubated for 2-5 min at 30° C. The reaction was stopped by adding 75 μl of 1M NaCO3, the cell debris removed by centrifugation and the A420 was determined. Beta-galactosidase units were determined using the following formula (A420/(A600 of 1/10 dilution of cells×volume of culture×time of incubation))×1,000. To examine expression levels of FKBP52 and ARA9 in yeast, we performed western blot analysis on cell extracts as described previously (Hogenesch et al., J. Biol. Chem. 272: 8581-8593, 1997).
ARA9 enhances ligand responsiveness of AHR: Given the sequence similarities between ARA9 and FKBP52, we asked if either protein could influence AHR signaling in vivo. To this end, we employed a LexA-AHR chimera and a LexA-operator-driven β-galactosidase reporter gene in the yeast S. cerevisiae (Carver et al., 1994, supra). Beta-napthoflavone dose-response curves were constructed for the LexA-AHR in the presence and absence of ARA9 (FIG. 5).
ARA3 was a candidate for a novel regulator of AHR signaling because of its ligand-dependent association with AHR in the two-hybrid screen. The influence of ARA3 on AHR signaling was investigated to determine modifier status. To accomplish this, an ARA3 cDNA (lacking the heterologous TAD from the two-hybrid clone, TAD-NΔ113ARA3) was expressed with LexA-NΔ166AHR in the L40 strain of yeast with increasing concentrations of β-NF.

Clc1cc2c(cc1Cl)Oc1cc(Cl)c(Cl)cc1O2 [TCDD, 2,3,7,8-tetrachlorodibenzo-p-dioxin]
increase of response of the system on overexpression of ARA9 (AHR): 2-3 fold

C[C@]12CC[C@H]3[C@@H](CCC4=CC(=O)CC[C@@]43C)[C@@H]1CC[C@@H]2C(=O)CO [deoxycorticosterone]
alteration of signaling profile of GR by ARA3 (GR-LexA chimera; co-expression of ARA3 with NlxC-GR): did not alter the signaling profile
alteration of response of GR-LexA chimera by ARA9 or FKBP52 (GR-LexA chimera; co-expression of ARA9 or FKBP52): nor could either factor alter the response

O=c1cc(-c2ccccc2)oc2ccc3ccccc3c12 [βNF, Beta-napthoflavone]
increase of maximal response of AHR by ARA3 (LexA-AHR chimera; co-expression of ARA3 (NΔ113ARA3) with LexA-NΔ166AHR): four-fold
increase of maximal response in the presence of ARA9 (LexA-AHR chimera; co-expression of ARA9 versus absence): approximately 2.5 fold
decrease of EC50 when ARA9 was present (LexA-AHR chimera; co-expression of ARA9 versus absence, β-galactosidase, ONPG assay): approximately 5 fold
shift in AHR dose-response elicited by FKBP52 (LexA-AHR chimera; co-expression of FKBP52): could not be elicited
shift of dose-response curve by ARA3 (LexA-AHR chimera; co-expression of NΔ113ARA3 with LexA-NΔ166AHR): shifted the curve to the left
